# In patent publication US10485236B2, “Triazole derivatives, intermediates thereof and their use as fungicides” (Bayer CropScience Aktiengesellschaft, priority 2015, dated 2019):
# Tests used:
# [1] = Measurement of LogP values by HPLC on reversed phase columns (EEC directive 79/831 Annex V.A8); format: physicochemical; conditions: reversed phase HPLC column, method [a]: LC-UV, acidic range, 0.1% formic acid in water and acetonitrile as eluent
# Procedure, shortened: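 Calibrated with straight-chain alkan-2-ones (3–16 carbons) of known LogP, using retention times with linear interpolation between successive alkanones. Where one method gives several LogP values, all are listed, joined by "+". Lambda-max taken from UV spectra (200–400 nm) at chromatographic peak maxima.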
# [2] = tested on: Sphaerotheca fuliginea; experiment: Example D: in vivo preventive test on Sphaerotheca fuliginea (powdery mildew on cucurbits); conditions: Podosphaera fuliginea, 360 h; 500 ppm of active ingredient; gherkin plants, preventive spray; evaluated 15 days after inoculation; read-out: efficacy
# Method: Example D: In Vivo Preventive Test on Sphaerotheca fuliginea (Powdery Mildew on Cucurbits) [table] The active ingredients are made soluble and homogenized in a mixture of Dimethyl sulfoxide/Acetone//Tween® 80 and then diluted in water to the desired concentration. The young plants of gherkin are treated by spraying the active ingredient prepared as described above. Control plants are treated only with an aqueous solution of Acetone/Dimethyl sulfoxide/Tween® 80. After 24 hours, the plants are contaminated by spraying the leaves with an aqueous suspension of Sphaerotheca fuliginea spores. The contaminated gherkin plants are incubated for 72 hours at 18° C. and at 100% relative humidity and then for 12 days at 20° C. and at 70-80% relative humidity. The test is evaluated 15 days after the inoculation. 0% means an efficacy which corresponds to that of the control plants while an efficacy of 100% means that no disease is observed.
# [3] = tested on: Botrytis cinerea; experiment: Example A: in vivo preventive test on Botrytis cinerea (grey mould), gherkin; conditions: gherkin plants, preventive spray, evaluated 4 to 5 days after inoculation, read-out: efficacy
# Method: Example A: In Vivo Preventive Test on Botrytis cinerea (Grey Mould) [table] The active ingredients are made soluble and homogenized in a mixture of Dimethyl sulfoxide/Acetone//Tween® 80 and then diluted in water to the desired concentration. The young plants of gherkin are treated by spraying the active ingredient prepared as described above. Control plants are treated only with an aqueous solution of Acetone/Dimethyl sulfoxide/Tween® 80. After 24 hours, the plants are contaminated by spraying the leaves with an aqueous suspension of Botrytis cinerea spores. The contaminated gherkin plants are incubated for 4 to 5 days at 17° C. and at 90% relative humidity. The test is evaluated 4 to 5 days after the inoculation. 0% means an efficacy which corresponds to that of the control plants while an efficacy of 100% means that no disease is observed.
# [4] = tested on: Sphaerotheca fuliginea; experiment: Example M: in vivo preventive test on Sphaerotheca (cucumbers); comparison of phenoxy-pyridyl compounds vs. known phenoxy-phenyl compounds; conditions: Podosphaera fuliginea, 168 h, rate of application 10 ppm, evaluated 7 days after inoculation, read-out: Efficacy in %
# Method: Example M: In Vivo Preventive Test on Sphaerotheca (Cucumbers); Comparison of Phenoxy-pyridyl Compounds According to the Invention Vs. Known Phenoxy-phenyl Compounds [table] To produce a suitable preparation of active compound, 1 part by weight of active compound is mixed with the above stated amounts of solvent and emulsifier, and the concentrate is diluted with water to the desired concentration. To test for preventive activity, young plants are sprayed with the preparation of active compound at the stated rate of application. After the spray coating has dried on, the plants are inoculated with an aqueous spore suspension of Sphaerotheca fuliginea. The plants are then placed in a greenhouse at approximately 23° C. and a relative atmospheric humidity of approximately 70%. The test is evaluated 7 days after the inoculation. 0% means an efficacy which corresponds to that of the untreated control, while an efficacy of 100% means that no disease is observed. [table]
# [5] = tested on: Puccinia recondita; experiment: Example B: in vivo preventive test on Puccinia recondita (brown rust on wheat); conditions: 264 h, 500 ppm of active ingredient, wheat plants, preventive spray, evaluated 11 days after inoculation, read-out: efficacy
# Method: (§1) Example B: In Vivo Preventive Test on Puccinia recondita (Brown Rust on Wheat) [table] The active ingredients are made soluble and homogenized in a mixture of Dimethyl sulfoxide/Acetone//Tween® 80 and then diluted in water to the desired concentration. The young plants of wheat are treated by spraying the active ingredient prepared as described above. Control plants are treated only with an aqueous solution of Acetone/Dimethyl sulfoxide/Tween® 80. After 24 hours, the plants are contaminated by spraying the leaves with an aqueous suspension of Puccinia recondita spores. The contaminated wheat plants are incubated for 24 hours at 20° C. and at 100% relative humidity and then for 10 days at 20° C. and at 70-80% relative humidity. The test is evaluated 11 days after the inoculation. 0% means an efficacy which corresponds to that of the control plants while an efficacy of 100% means that no disease is observed.
# [6] = tested on: Septoria tritici; experiment: Example C: in vivo preventive test on Septoria tritici (leaf spot on wheat); conditions: Zymoseptoria tritici, 576 h; 500 ppm of active ingredient; wheat plants, preventive spray; evaluated 24 days after inoculation; read-out: efficacy
# Method: Example C: In Vivo Preventive Test on Septoria tritici (Leaf Spot on Wheat) [table] The active ingredients are made soluble and homogenized in a mixture of Dimethyl sulfoxide/Acetone//Tween® 80 and then diluted in water to the desired concentration. The young plants of wheat are treated by spraying the active ingredient prepared as described above. Control plants are treated only with an aqueous solution of Acetone/Dimethyl sulfoxide/Tween® 80. After 24 hours, the plants are contaminated by spraying the leaves with an aqueous suspension of Septoria tritici spores. The contaminated wheat plants are incubated for 72 hours at 18° C. and at 100% relative humidity and then for 21 days at 20° C. and at 90% relative humidity. The test is evaluated 24 days after the inoculation. 0% means an efficacy which corresponds to that of the control plants while an efficacy of 100% means that no disease is observed.
# [7] = tested on: Alternaria solani; experiment: Example F: in vivo preventive test on Alternaria test (tomatoes); conditions: 72 h, 100 ppm of active ingredient, preventive spray, evaluated 3 days after inoculation, read-out: efficacy
# Method: Example F: In Vivo Preventive Test on Alternaria Test (Tomatoes) [table] To produce a suitable preparation of active compound, 1 part by weight of active compound is mixed with the stated amounts of solvent and emulsifier, and the concentrate is diluted with water to the desired concentration. To test for preventive activity, young plants are sprayed with the preparation of active compound at the stated rate of application. After the spray coating has dried on, the plants are inoculated with an aqueous spore suspension of Alternaria solani. The plants are then placed in an incubation cabinet at approximately 20° C. and a relative atmospheric humidity of 100%. The test is evaluated 3 days after the inoculation. 0% means an efficacy which corresponds to that of the untreated control while an efficacy of 100% means that no disease is observed.
# [8] = tested on: Venturia inaequalis; experiment: Example H: in vivo preventive test on Venturia test (apples); conditions: 240 h, 100 ppm of active ingredient, preventive spray, evaluated 10 days after inoculation, read-out: efficacy
# Method: Example H: In Vivo Preventive Test on Venturia Test (Apples) [table] To produce a suitable preparation of active compound, 1 part by weight of active compound is mixed with the stated amounts of solvent and emulsifier, and the concentrate is diluted with water to the desired concentration. To test for preventive activity, young plants are sprayed with the preparation of active compound at the stated rate of application. After the spray coating has dried on, the plants are inoculated with an aqueous conidia suspension of the causal agent of apple scab (Venturia inaequalis) and then remain for 1 day in an incubation cabinet at approximately 20° C. and a relative atmospheric humidity of 100%. The plants are then placed in a greenhouse at approximately 21° C. and a relative atmospheric humidity of approximately 90%. The test is evaluated 10 days after the inoculation. 0% means an efficacy which corresponds to that of the untreated control, while an efficacy of 100% means that no disease is observed.
# [9] = tested on: Uromyces appendiculatus; experiment: Example E: in vivo preventive test on Uromyces appendiculatus (bean rust); conditions: 264 h, 500 ppm of active ingredient, bean plants, preventive spray, evaluated 11 days after inoculation, read-out: efficacy
# Method: as §1, with “E:” for “B:”, “Uromyces appendiculatus (Bean Rust)” for “Puccinia recondita (Brown Rust on Wheat)”, “bean” for “wheat”, “Uromyces appendiculatus” for “Puccinia recondita”
structure (smiles),measurement,setting,value
Cc1ccc(Oc2ccc(C(C)(O)Cn3cncn3)c(Cl)n2)cc1Cl (stereo not drawn) [I.29],chromatographic logP,[1],3
same,pest or weed control at 500 ppm,[2],90 to 100%
same,pest or weed control,[3],90 to 100%
same,pest or weed control at 10 ppm,[4],95%
same,pest or weed control at 500 ppm,[5],80 to 89%
same,pest or weed control at 500 ppm,[6],90 to 100%
same,pest or weed control at 100 ppm,[7],90 to 100%
same,pest or weed control at 100 ppm,[8],90 to 100%
same,pest or weed control at 500 ppm,[9],90 to 100%
